3 molecules from patent publication US20080248008A1, “Inhibitors of Protein Kinase a Anchoring” (priority 2004, published 2008) can be followed below.

The target in one assay is T1, RI(Δ1-24) (Bos taurus, UniProt P00514).
T1 construct: made in house; host or cells: E. coli BL21 (B121 [sic])
Briefly: Co-precipitation with recombinant RI(Δ1-24) added to HEK293 lysate. In kind it is binding. The following applies: recombinant protein added to cell lysate. From the text: Constructs and mutagenesis. Oligonucleotides with the following sequences were directionally cloned into EGFP-C (Clonetech) vector via TOPO blunt vector (Invitrogen) by using SalI and BamHI sites. MEME3(+), 5′-GTC GAC-CTGGAGCAGTACGCCAACCAGCTGGCCGACCAGATCATCAAGGAGGCCACCGAG-GGA TCC-3′; MEME3 (−), 5′-GGA TCC-CTCGGTGGCCTCCTTGATGATCTGGTCGGCCAGCTGGTTGGCGTACTGCTCCAG-GTC GAC-3′; Scramble (+), 5′-GTCGACATCGAGAAGGAGCTGGCCCAGCAGTACCAGAACGCCGACGCCATCACCCTGGAGGGATCC-3′; and Scramble (−), 5′-GGATCCCTCCAGGGTGATGGCGTCGGCGTTCTGGTACTGCTGGGCCAGCTCCTTCTCGATGTCGAC-3′. The site specific mutation, A98S, was made in RI wild type cloned into pRSETB (Invitrogen) using a site specific-mutagenesis kit (Stratagene). RI( 1-11), RI(Δ1-15) and RI(Δ1-24) mutants were made by PCR and re-cloned into pRSETB (Invitrogen). All constructs were confirmed by sequencing.
HEK293 cells at […] were transfected with ten μg of plasmid DNA (GFP, GFP-MEME3 or GFP-Scrambled MEME3) by using the CaCl2 method. […]
In FIG. 4D, the co-precipitation of recombinant full length and N-truncated RI (added to the cell lysate) with MEME3 was detected by immunoblotting using a monoclonal antibody against RI (lane 2-4).

For a further assay, the target named is T2, PKA-RIIα (Mus musculus, UniProt P12367).
T2 construct: host or cells: mouse Y-1 adrenocortical cells (lysate)
T2 sequence (P12367 whole entry): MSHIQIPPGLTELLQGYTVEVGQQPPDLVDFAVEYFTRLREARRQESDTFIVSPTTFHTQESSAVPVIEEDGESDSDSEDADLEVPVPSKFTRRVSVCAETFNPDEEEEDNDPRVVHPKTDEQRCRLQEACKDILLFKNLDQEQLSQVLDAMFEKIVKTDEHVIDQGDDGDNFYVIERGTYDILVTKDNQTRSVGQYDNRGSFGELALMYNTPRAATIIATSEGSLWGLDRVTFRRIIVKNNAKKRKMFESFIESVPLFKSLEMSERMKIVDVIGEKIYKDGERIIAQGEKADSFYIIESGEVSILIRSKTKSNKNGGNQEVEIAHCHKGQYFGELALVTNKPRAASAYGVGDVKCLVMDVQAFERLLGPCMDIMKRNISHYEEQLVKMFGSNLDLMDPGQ
Put plainly: Solid phase immobilization from Y-1 adrenal cell lysate, PKA-RIIα. The settings on record: overnight. The format is binding. The protocol:
Solid phase assay and cell lysate. 5×10^6 Y1 cells or 20×10^6 Jurkat T cells lysed in 150 mM NaCl, 1% NP-40, 0.5% deoxycholate, 0.1% SDS and 50 mM Tris HCl (7.8) were incubated overnight at 4° C. with MEME3 and SM3 peptides synthesized on membranes (Autospot, Intavis, AG). The membranes were washed two times for 10 minutes in lysis buffer and thereafter in high salt lysis buffer (1 M NaCl) before boiling in SDS-PAGE loading buffer.
A solid phase immobilization assay (schematic illustration in FIG. 24, left panel) was used to analyse endogenous PKA binding to MEME3. MEME3 and SM3 peptides synthesized in triplicate on membranes were incubated overnight in lysate from Y-1 adrenal cells. Thereafter bound proteins were eluted, subjected to 10% PAGE and analysed by immunoblotting using specific antibodies against PKA-RIα, PKA-C and PKA-RIIα subunits.

The next assay concerns mice with MAIDS. Briefly: T cell proliferative response after in vivo treatment of mice with murine AIDS. The settings on record: 75 mg/kg/day intraperitoneal, 10 days. The protocol: Rad-LS infected mice with MAIDS (10-12 weeks postinfection) were treated with MEME3-Arg11 in doses corresponding to those used for other bioactive peptides in studies in mice. Parenteral administration was accomplished by injecting intraperitoneally peptide formulated in PBS. Thus, MAIDS mice were injected with vehicle (phosphate buffered saline, PBS, Ctr.) or treated with MEME3-Arg11 in PBS (M3) by intraperitoneal injection (75 mg/kg/day administered once daily) for 10 days (left panel). In parallel, healthy, uninfected mice were injected with PBS (Ctr.) or MEME3-Arg11 in PBS (M3) (right panel). Subsequently, T cell proliferative responses were assessed in vitro in a mixed population of unsorted lymph node mononuclear cells from treated and untreated animals by [^3H]-thymidine incorporation. T cell activation was accomplished in all samples by cross-ligation of anti-CD3 (mAb 2C11; 4 µg/ml). Cells were cultured for 72 h during which MEME3-Arg11 was added back. [^3H]-thymidine was included for the last 4 hours.

For the next assay, the system named is Y1 adrenal cells. Put plainly: Progesterone production in Y1 adrenal cells. In kind it is cell-based, mouse. The following applies: Actinomycin D treated cells. The protocol:
Mouse adrenocortical Y1 cells were obtained from ATCC (Cat. No. CCL-79) and maintained in DMEM/HAM'S F-12 (Cat. No. E15-813, PAA Laboratories GmbH, Pasching, Austria) supplemented with 100 μg/ml streptomycin, 100 U/ml penicillin and 10% (v/v) fetal calf serum in a humidified atmosphere of 5% CO2 and split by trypsination at less than 80% confluence.
Progesterone production and StAR protein level. Y1 cells were cultured overnight in 6-well plates at the density of 1.5×10^6 cells per well. To increase the basal level of StAR, the cells were pre-stimulated with 10 μM forskolin for 1 hour, washed twice with medium, before peptide loading. Thereafter, the cells were loaded with 50 μM of the arginine-coupled peptide for 5 hours before being treated with 5 μg/ml Actinomyocin D (Cat. No. A-9415, Sigma) for 30 min and stimulated with 10 μM forskolin (Cat. No. 344270, Calbiochem) or 10 IU/ml ACTH (Cat. No. A-6303, Sigma) for 12 hours. […] Progesterone in the cell medium was measured by using either Spectria Progesterone RIA (Cat. No. 68521, Orion Diagnostica, Espoo, Finland) or DELFIA progesterone kit (Cat. No. A066-101, PerkinElmer) following the conditions recommended by the manufacture. The cells were lysed and the StAR protein was analysed by western blotting and the level measured by densiometric analysis.

Entries after “also recorded” stand apart in the source; their conditions may differ.

T1 sequence (P00514 25-380, stated change not applied): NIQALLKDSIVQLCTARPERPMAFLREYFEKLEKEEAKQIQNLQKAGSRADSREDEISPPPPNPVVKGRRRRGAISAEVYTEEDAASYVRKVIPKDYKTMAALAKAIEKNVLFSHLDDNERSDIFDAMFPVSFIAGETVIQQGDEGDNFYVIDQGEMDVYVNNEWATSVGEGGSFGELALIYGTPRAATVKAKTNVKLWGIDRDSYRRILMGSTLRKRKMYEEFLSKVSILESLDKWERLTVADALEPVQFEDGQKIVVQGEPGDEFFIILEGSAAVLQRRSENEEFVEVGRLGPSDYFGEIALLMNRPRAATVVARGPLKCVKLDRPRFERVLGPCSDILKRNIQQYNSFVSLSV

Regarding `CC[C@H](C)[C@H](NC(=O)[C@H](CCC(N)=O)NC(=O)[C@H](CC(=O)O)NC(=O)[C@H](C)NC(=O)[C@H](CC(C)C)NC(=O)[C@H](CCC(N)=O)NC(=O)[C@H](CC(N)=O)NC(=O)[C@H](C)NC(=O)[C@H](Cc1ccc(O)cc1)NC(=O)[C@H](CCC(N)=O)NC(=O)[C@H](CCC(=O)O)NC(=O)[C@@H](N)CC(C)C)C(=O)N[C@H](C(=O)N[C@@H](CCCCN)C(=O)N[C@@H](CCC(=O)O)C(=O)N[C@@H](C)C(=O)N[C@H](C(=O)N[C@@H](CCC(=O)O)C(=O)N[C@@H](CCCCNC(=O)c1ccc2c(c1)C(=O)OC21c2ccc(O)cc2Oc2cc(O)ccc21)C(N)=O)[C@@H](C)O)[C@@H](C)CC` [MEME3], the “co-precipitation with RI(Δ1-24)” value at RI(Δ1-24) is recorded as “did not precipitate MEME3”.
As to “IEKELAQQYQNADAITLE [SM3, scrambled MEME3 negative control peptide, reference compound]”, the “immobilization of PKA-RIIα” value in the assay with PKA-RIIα was “Neither PKA-RIα, PKA-C nor PKA-RIIα were immobilized”.
Regarding “LEQYANQLADQIIKEATERRRRRRRRRrr [MEME3-Arg11]”, in the assay on mice with MAIDS, the “T cell responses to anti-CD3 ([3H]-thymidine) compared to infected, control-treated mice” value is on record as “significant increase (p=0.013); also recorded: increased more than three-fold”. Moreover, the “inhibition relative to that with mutated PKA phosphorylation site in StAR” value in the assay on Y1 adrenal cells is given as “approximately 80%”. In addition, the “reduction of progesterone production compared to SM3-Arg11” value in the assay with Y1 adrenal cells (forskolin) was determined as 60%.
